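1) Cells in 96-well plates. 2) Compound, 48 h, 5 concentrations. 3) Linear interpolation between surrounding doses. 4) Unreached endpoint = highest concentration. Definition used: TGI = concentration required for complete inhibition of growth.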
Assays:
Assay in all cases: NCI tumour cell line growth inhibition, 48 h
CAKI-1 renal = system: CAKI-1 renal
DU-145 prostate = system: DU-145 prostate
MDA-MB-435 = system: MDA-MB-435
SK-MEL-28 melanoma = system: SK-MEL-28 melanoma
MOLT-4 leukemia = system: MOLT-4 leukemia
HT29 colon = system: HT29 colon
UO-31 renal = system: UO-31 renal
SK-MEL-5 melanoma = system: SK-MEL-5 melanoma
NCI-H460 lung = system: NCI-H460 lung
NCI/ADR-RES ovarian = system: NCI/ADR-RES ovarian
CCRF-CEM leukemia = system: CCRF-CEM leukemia
SW-620 colon = system: SW-620 colon
SNB-19 CNS = system: SNB-19 CNS
HCT-116 colon = system: HCT-116 colon
KM12 colon = system: KM12 colon
SK-MEL-2 melanoma = system: SK-MEL-2 melanoma
HOP-62 NSCLC = system: HOP-62 NSCLC
HOP-92 NSCLC = system: HOP-92 NSCLC
ACHN renal = system: ACHN renal
OVCAR-3 ovarian = system: OVCAR-3 ovarian
COLO 205 colon = system: COLO 205 colon
SNB-75 CNS = system: SNB-75 CNS
RPMI-8226 leukemia = system: RPMI-8226 leukemia
HCC-2998 colon = system: HCC-2998 colon
IGROV1 ovarian = system: IGROV1 ovarian
RXF 393 renal = system: RXF 393 renal
OVCAR-8 ovarian = system: OVCAR-8 ovarian
HL-60(TB) leukemia = system: HL-60(TB) leukemia
SF-268 CNS = system: SF-268 CNS
A549 NSCLC = system: A549 NSCLC
A498 renal = system: A498 renal
MDA-N = system: MDA-N
PC-3 prostate = system: PC-3 prostate
SF-539 CNS = system: SF-539 CNS
MALME-3M melanoma = system: MALME-3M melanoma
UACC-62 melanoma = system: UACC-62 melanoma
SK-OV-3 ovarian = system: SK-OV-3 ovarian
HCT-15 colon = system: HCT-15 colon
HS 578T breast = system: HS 578T breast
MDA-MB-231 breast = system: MDA-MB-231 breast
TK-10 renal = system: TK-10 renal
BT-549 breast = system: BT-549 breast
EKVX NSCLC = system: EKVX NSCLC
SF-295 CNS = system: SF-295 CNS
M14 melanoma = system: M14 melanoma
OVCAR-4 ovarian = system: OVCAR-4 ovarian
K-562 leukemia = system: K-562 leukemia
NCI-H23 lung = system: NCI-H23 lung
U251 CNS = system: U251 CNS
786-0 renal = system: 786-0 renal
MCF7 breast = system: MCF7 breast
NCI-H226 lung = system: NCI-H226 lung
T-47D breast = system: T-47D breast
OVCAR-5 ovarian = system: OVCAR-5 ovarian
NCI-H522 lung = system: NCI-H522 lung
LOX IMVI melanoma = system: LOX IMVI melanoma
SN12C renal = system: SN12C renal
SR leukemia = system: SR leukemia
UACC-257 melanoma = system: UACC-257 melanoma

Cn1cccc1-c1ccc(-c2ccc(CO)[se]2)[se]1
TGI (CAKI-1 renal): 44.5 µM | TGI (DU-145 prostate): 70.1 µM | TGI (MDA-MB-435): 18.7 µM | TGI (SK-MEL-28 melanoma): > 100 µM | TGI (MOLT-4 leukemia): 71.4 µM | TGI (HT29 colon): > 100 µM | TGI (UO-31 renal): 96.9 µM | TGI (SK-MEL-5 melanoma): > 75 µM | TGI (NCI-H460 lung): > 100 µM | TGI (NCI/ADR-RES ovarian): > 81 µM | TGI (CCRF-CEM leukemia): > 46.7 µM | TGI (SW-620 colon): > 100 µM | TGI (SNB-19 CNS): > 100 µM | TGI (HCT-116 colon): > 100 µM | TGI (KM12 colon): 50.5 µM | TGI (SK-MEL-2 melanoma): > 100 µM | TGI (HOP-62 NSCLC): > 88.1 µM | TGI (HOP-92 NSCLC): > 100 µM | TGI (ACHN renal): > 100 µM | TGI (OVCAR-3 ovarian): > 100 µM | TGI (COLO 205 colon): > 86.4 µM | TGI (SNB-75 CNS): 59.5 µM | TGI (RPMI-8226 leukemia): 47.7 µM | TGI (HCC-2998 colon): > 68.4 µM | TGI (IGROV1 ovarian): > 100 µM | TGI (RXF 393 renal): 43.2 µM | TGI (OVCAR-8 ovarian): > 100 µM | TGI (HL-60(TB) leukemia): 18.9 µM | TGI (SF-268 CNS): > 100 µM | TGI (A549 NSCLC): > 100 µM | TGI (A498 renal): > 100 µM | TGI (MDA-N): > 100 µM | TGI (PC-3 prostate): > 100 µM | TGI (SF-539 CNS): > 82.9 µM | TGI (MALME-3M melanoma): > 100 µM | TGI (UACC-62 melanoma): > 100 µM | TGI (SK-OV-3 ovarian): > 78.3 µM | TGI (HCT-15 colon): > 100 µM | TGI (HS 578T breast): > 100 µM | TGI (MDA-MB-231 breast): > 79.8 µM | TGI (TK-10 renal): > 100 µM | TGI (BT-549 breast): > 78.5 µM | TGI (EKVX NSCLC): > 100 µM | TGI (SF-295 CNS): > 95.8 µM | TGI (M14 melanoma): > 100 µM | TGI (OVCAR-4 ovarian): 53.8 µM | TGI (K-562 leukemia): > 100 µM | TGI (NCI-H23 lung): > 90 µM | TGI (U251 CNS): > 100 µM | TGI (786-0 renal): > 100 µM | TGI (MCF7 breast): > 40 µM | TGI (NCI-H226 lung): 5.89 µM | TGI (T-47D breast): > 83.7 µM | TGI (OVCAR-5 ovarian): > 100 µM | TGI (NCI-H522 lung): 50.1 µM | TGI (LOX IMVI melanoma): > 70.6 µM | TGI (SN12C renal): > 100 µM | TGI (SR leukemia): 56.9 µM

CCOC(=O)/C(C(N)=O)=C(\O)C(=O)/C(Br)=C(\O)c1ccccc1
TGI (CAKI-1 renal): 24.6 µM | TGI (DU-145 prostate): 39.7 µM | TGI (MDA-MB-435): 31.6 µM | TGI (SK-MEL-28 melanoma): 34.9 µM | TGI (MOLT-4 leukemia): 8.33 µM | TGI (HT29 colon): > 70.8 µM | TGI (UO-31 renal): 39.6 µM | TGI (SK-MEL-5 melanoma): 30.5 µM | TGI (NCI-H460 lung): 56.1 µM | TGI (NCI/ADR-RES ovarian): 72.9 µM | TGI (CCRF-CEM leukemia): 3.54 µM | TGI (SW-620 colon): 35.2 µM | TGI (SNB-19 CNS): > 69.1 µM | TGI (HCT-116 colon): 32 µM | TGI (KM12 colon): 35.3 µM | TGI (SK-MEL-2 melanoma): 37.4 µM | TGI (HOP-62 NSCLC): 41.5 µM | TGI (HOP-92 NSCLC): 53.7 µM | TGI (ACHN renal): 33.3 µM | TGI (OVCAR-3 ovarian): 41.4 µM | TGI (COLO 205 colon): 33.4 µM | TGI (SNB-75 CNS): 32.1 µM | TGI (RPMI-8226 leukemia): 29.4 µM | TGI (HCC-2998 colon): 36.6 µM | TGI (IGROV1 ovarian): 31.1 µM | TGI (RXF 393 renal): 29.6 µM | TGI (UACC-257 melanoma): 31.8 µM | TGI (OVCAR-8 ovarian): 39.5 µM | TGI (HL-60(TB) leukemia): 0.248 µM | TGI (SF-268 CNS): 39.5 µM | TGI (A549 NSCLC): 43.5 µM | TGI (A498 renal): > 100 µM | TGI (MDA-N): 32.2 µM | TGI (PC-3 prostate): 31.7 µM | TGI (SF-539 CNS): 36.5 µM | TGI (MALME-3M melanoma): 29.2 µM | TGI (UACC-62 melanoma): 33.3 µM | TGI (SK-OV-3 ovarian): > 57.4 µM | TGI (HCT-15 colon): 39.8 µM | TGI (HS 578T breast): 50.1 µM | TGI (MDA-MB-231 breast): 34.2 µM | TGI (TK-10 renal): 33.2 µM | TGI (BT-549 breast): 33.7 µM | TGI (EKVX NSCLC): 52.8 µM | TGI (SF-295 CNS): > 100 µM | TGI (M14 melanoma): 29.3 µM | TGI (OVCAR-4 ovarian): 56.5 µM | TGI (K-562 leukemia): 31.2 µM | TGI (NCI-H23 lung): 37.3 µM | TGI (U251 CNS): 35.3 µM | TGI (786-0 renal): 29.7 µM | TGI (MCF7 breast): 36.9 µM | TGI (NCI-H226 lung): 51.6 µM | TGI (T-47D breast): 54.4 µM | TGI (OVCAR-5 ovarian): 37.5 µM | TGI (NCI-H522 lung): 3.7 µM | TGI (LOX IMVI melanoma): 36.3 µM | TGI (SN12C renal): 34.2 µM | TGI (SR leukemia): 12.1 µM

— PubChem BioAssay (NCI)
